{"source": "patent US8378104B2", "about": "(OSI Pharmaceuticals, LLC, priority 2010, dated 2013)", "note": "Where a name gives a salt, the structure may show the parent alone."}
{"target": "T1, TAK1-TAB1 fusion protein (Homo sapiens, UniProt O43318)", "T1 construct": "purchased Carna", "T1 sequence (O43318 with tags, fused parts or gaps limits assumed)": "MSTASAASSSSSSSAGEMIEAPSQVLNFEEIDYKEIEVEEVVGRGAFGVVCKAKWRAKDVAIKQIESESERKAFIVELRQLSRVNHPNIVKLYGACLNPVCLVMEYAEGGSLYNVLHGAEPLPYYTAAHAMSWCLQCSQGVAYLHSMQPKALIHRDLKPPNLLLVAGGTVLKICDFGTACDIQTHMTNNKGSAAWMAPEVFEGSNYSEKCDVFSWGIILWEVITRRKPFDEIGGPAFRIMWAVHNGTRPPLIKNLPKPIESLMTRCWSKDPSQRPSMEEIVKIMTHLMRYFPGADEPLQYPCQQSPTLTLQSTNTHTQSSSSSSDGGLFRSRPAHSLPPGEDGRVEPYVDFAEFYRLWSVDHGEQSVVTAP", "assay": "TAK1 biochemical assay (AlphaScreen, GST-MAP2K7 substrate)", "details": "not given", "units": {"IC50": "µM"}}
{"smiles": "Cc1nn(C)c(C)c1-c1cnc(N)c2oc(-c3csc4cnccc34)cc12", "note": "[Example 294, 2-thieno[2,3-c]pyridin-3-yl-4-(1,3,5-trimethyl-1H-pyrazol-4-yl)-furo[2,3-c]pyridin-7-ylamine]", "IC50": "> 10"}
{"target": "T1, TAK1-TAB1 fusion protein", "assay": "TAK1 biochemical assay (AlphaScreen, GST-MAP2K7 substrate)", "details": "TAK1-TAB1 fusion protein, GST-MAP2K7 substrate; read-out: mean TAK1 IC50 (Col. A)", "units": {"IC50": "µM"}}
{"smiles": "Cc1c(-c2ccccc2)oc2c(N)ncc(-c3cnn(C4CCNCC4)c3)c12", "note": "[Example 9, methyl-2-phenyl-4-[1-(piperidin-4-yl)-1H-pyrazol-4-yl]furo[2,3-c]pyridin-7-amine hydrochloride]", "IC50": "1 to 10"}
{"smiles": "CC(=O)N1CCC(n2cc(-c3cnc(N)c4oc(-c5cccc(OCc6ccccc6Cl)c5)cc34)cn2)CC1", "note": "[Example 166, 1-{4-[4-(7-amino-2-{3-[(2-chlorobenzyl)oxy]phenyl}furo[2,3-c]pyridin-4-yl)-1H-pyrazol-1-yl]piperidin-1-yl}ethanone]", "IC50": "> 10"}
{"smiles": "Nc1ncc(-c2cnn(C3CCNCC3)c2)c2cc(-c3cncc4ccccc34)oc12", "note": "[Example 34, 2-(isoquinolin-4-yl)-4-[1-(piperidin-4-yl)-1H-pyrazol-4-yl]furo[2,3-c]pyridine-7-amine]", "IC50": "1 to 10"}
{"smiles": "COc1cccc(COc2cccc(-c3cc4c(-c5cnn(C6CCN(C(C)=O)CC6)c5)cnc(N)c4o3)c2)c1", "note": "[Example 207, 1-{4-[4-(7-amino-2-{3-[(3-methoxybenzyl)oxy]phenyl}furo[2,3-c]pyridin-4-yl)-1H-pyrazol-1-yl]piperidin-1-yl}ethanone]", "IC50": "> 10"}
{"smiles": "CC(=O)N1CCC(n2cc(-c3cnc(N)c4oc(-c5ccc(Cl)c(C(=O)O)c5)cc34)cn2)CC1", "note": "[Example 110, 5-{4-[1-(1-acetylpiperidin-4-yl)-1H-pyrazol-4-yl]-7-aminofuro[2,3-c]pyridin-2-yl}-2-chlorobenzoic acid hydrochloride]", "IC50": "1 to 10"}
{"smiles": "CC(=O)N1CCC(n2cc(-c3cnc(N)c4oc(-c5ccc(-c6ccn[nH]6)cc5)cc34)cn2)CC1", "note": "[Example 128, 1-[4-(4-{7-amino-2-[4-(1H-pyrazol-5-yl)phenyl]furo[2,3-c]pyridin-4-yl}-1H-pyrazol-1-yl)piperidin-1-yl]ethanone]", "IC50": "1 to 10"}
{"smiles": "CS(=O)(=O)Nc1cccc(-c2cc3c(-c4cnn(C5CCNCC5)c4)cnc(N)c3o2)c1", "note": "[Example 23, N-(3-{7-amino-4-[1-(piperidin-4-yl)-1H-pyrazol-4-yl]furo[2,3-c]pyridine-2-yl}phenyl)methanesulfonamide]", "IC50": "1 to 10"}
{"smiles": "CC(=O)N1CCC(n2cc(-c3cnc(N)c4oc(-c5cccc(S(N)(=O)=O)c5)cc34)cn2)CC1", "note": "[Example 102, 3-{4-[1-(1-acetylpiperidin-4-yl)-1H-pyrazol-4-yl]-7-aminofuro[2,3-c]pyridin-2-yl}benzenesulfonamide]", "IC50": "1 to 10"}
{"smiles": "N#Cc1ccsc1-c1cnc(N)c2oc(-c3csc4cnccc34)cc12", "note": "[Example 383, 2-(7-amino-2-thieno[2,3-c]pyridin-3-yl-furo[2,3-c]pyridin-4-yl)-thiophene-3-carbonitrile]", "IC50": "> 10"}
{"smiles": "CSc1nc2cccc(-c3cc4c(-c5cnn([C@H]6CC[C@H](O)CC6)c5)cnc(N)c4o3)c2s1", "note": "[Example 353, trans-4-(4-{7-amino-2-[2-(methylsulfanyl)-1,3-benzothiazol-7-yl]furo[2,3-c]pyridin-4-yl}-1H-pyrazol-1-yl)cyclohexanol Trifluoroacetate (Salt)]", "IC50": "1 to 10"}
{"smiles": "N#Cc1sccc1-c1cnc(N)c2oc(-c3csc4cnccc34)cc12", "note": "[Example 384]", "IC50": "> 10"}
{"smiles": "CC(=O)N1CCC(n2cc(-c3cnc(N)c4oc(-c5ccc(N)nc5)cc34)cn2)CC1", "note": "[Example 147, 1-(4-{4-[7-amino-2-(6-aminopyridin-3-yl)furo[2,3-c]pyridin-4-yl]-1H-pyrazol-1-yl}piperidin-1-yl)ethanone]", "IC50": "0.1 to 1"}
{"smiles": "Nc1ncc(-c2cnn([C@H]3CC[C@H](O)CC3)c2)c2cc(-c3ccc4c(c3)CNC4=O)oc12", "note": "[Example 404, 5-{7-amino-4-[1-(trans-4-hydroxycyclohexyl)-1H-pyrazol-4-yl]furo[2,3-c]pyridin-2-yl}-2,3-dihydro-1H-isoindol-1-one]", "IC50": "1 to 10"}
{"smiles": "CC(=O)N1CCC(n2cc(-c3cnc(N)c4oc(-c5csc6c(=O)[nH]ccc56)cc34)cn2)CC1", "note": "[Example 257, 3-{4-[1-(1-acetylpiperidin-4-yl)-1H-pyrazol-4-yl]-7-aminofuro[2,3-c]pyridin-2-yl}thieno[2,3-c]pyridin-7(6H)-one trifluoroacetic Acid Salt]", "IC50": "1 to 10"}
{"smiles": "Nc1ncc(-c2cnn(C3CCN(C(=O)CCC4CCCCC4)CC3)c2)c2cc(-c3csc4cnccc34)oc12", "note": "[Example 334, 1-{4-[4-(7-amino-2-thieno[2,3-c]pyridin-3-yl-furo[2,3-c]pyridin-4-yl)-pyrazol-1-yl]-piperidin-1-yl}-3-cyclohexyl-propan-1-one]", "IC50": "1 to 10"}
{"smiles": "CCC(C)Oc1cccc(-c2cc3c(-c4cnn(C5CCN(C(C)=O)CC5)c4)cnc(N)c3o2)c1", "note": "(stereo not shown) [Example 210]", "IC50": "> 10"}
{"smiles": "Nc1ncc(-c2cc(C(=O)O)cs2)c2cc(-c3csc4cnccc34)oc12", "note": "[Example 379, 5-(7-amino-2-thieno[2,3-c]pyridin-3-yl-furo[2,3-c]pyridin-4-yl)-thiophene-3-carboxylic acid]", "IC50": "1 to 10"}
{"smiles": "Nc1ncc(-c2cnn(C3CCCCC3)c2)c2cc(-c3cccc4cnccc34)oc12", "note": "[Example 73, 4-(1-cyclohexyl-1H-pyrazol-4-yl)-2-(isoquinolin-5-yl)furo[2,3-c]pyridin-7-amine]", "IC50": "1 to 10"}
{"smiles": "CCOC(=O)Cn1cc(-c2cnc(N)c3oc(-c4cccc5cnccc45)cc23)cn1", "note": "[Example 59, ethyl {4-[7-amino-2-(isoquinolin-5-yl)furo[2,3-c]pyridin-4-yl]-1H-pyrazol-1-yl}acetate]", "IC50": "1 to 10"}
{"smiles": "Nc1ncc(-c2cnn(C3CC=CC3)c2)c2cc(-c3cccc4cnccc34)oc12", "note": "[Example 72, 4-[1-(cyclopent-3-en-1-yl)-1H-pyrazol-4-yl]-2-(isoquinolin-5-yl)furo[2,3-c]pyridin-7-amine]", "IC50": "0.1 to 1"}
{"smiles": "CC(=O)N1CCC(n2cc(-c3cnc(N)c4oc(-c5csc6cncc(Cl)c56)cc34)cn2)CC1", "note": "[Example 255]", "IC50": "1 to 10"}
{"smiles": "CNc1ncc(-c2cnn(C3CCN(C(C)=O)CC3)c2)c2cc(-c3cccc4cnsc34)oc12", "note": "[Example 279, 1-(4-{4-[2-(1,2-benzothiazol-7-yl)-7-(methylamino)furo[2,3-c]pyridin-4-yl]-1H-pyrazol-1-yl}piperidin-1-yl)ethanone trifluoroacetate]", "IC50": "0.1 to 1"}
{"smiles": "CC(=O)N1CCC(n2cc(-c3cnc(N)c4oc(-c5cccc(-c6ccccc6)c5)cc34)cn2)CC1", "note": "[Example 160, 1-(4-{4-[7-amino-2-(biphenyl-3-yl)furo[2,3-c]pyridin-4-yl]-1H-pyrazol-1-yl}piperidin-1-yl)ethanone]", "IC50": "1 to 10"}
{"smiles": "Nc1ncc(-c2cnn([C@H]3CC[C@H](O)CC3)c2)c2cc(-c3c(F)ccc4ncsc34)oc12", "note": "[Example 359, trans-4-{4-[7-amino-2-(6-fluoro-1,3-benzothiazol-7-yl)furo[2,3-c]pyridin-4-yl]-1H-pyrazol-1-yl}cyclohexanol]", "IC50": "1 to 10"}
{"smiles": "COc1cc(-c2cc3c(-c4cnn(C5CCN(C(C)=O)CC5)c4)cnc(N)c3o2)ccc1N", "note": "[Example 150, 1-(4-{4-[7-amino-2-(4-amino-3-methoxyphenyl)furo[2,3-c]pyridin-4-yl]-1H-pyrazol-1-yl}piperidin-1-yl)ethanone]", "IC50": "1 to 10"}
{"smiles": "Cc1cc(-c2cnc(N)c3oc(-c4csc5cnccc45)cc23)cs1", "note": "[Example 393, 4-(5-methylthiophen-3-yl)-2-(thieno[2,3-c]pyridin-3-yl)furo[2,3-c]pyridin-7-amine trifluoroacetate]", "IC50": "1 to 10"}
{"smiles": "Cc1c(-c2cccc3ccsc23)oc2c(N)ncc(-c3cnn(C4CCNCC4)c3)c12", "note": "[Example 10, 2-(1-benzothiophen-7-yl)-3-methyl-4-[1-(piperidin-4-yl)-1H-pyrazol-4-yl]furo[2,3-c]pyridin-7-amine hydrochloride]", "IC50": "1 to 10"}
{"smiles": "Nc1ncc(-c2cnn([C@H]3CC[C@H](O)CC3)c2)c2cc(-c3cc(-c4cc[nH]n4)cc4nnsc34)oc12", "note": "[Example 374, trans-4-(4-{7-amino-2-[5-(1H-pyrazol-3-yl)-1,2,3-benzothiadiazol-7-yl]furo[2,3-c]pyridin-4-yl}-1H-pyrazol-1-yl)cyclohexanol]", "IC50": "0.1 to 1"}
{"smiles": "C[C@]1(O)CC[C@H](n2cc(-c3cnc(N)c4oc(-c5cccc6cnccc56)cc34)cn2)CC1", "note": "[Example 75, trans-4-{4-[7-amino-2-(isoquinolin-5-yl)furo[2,3-c]pyridin-4-yl]-1H-pyrazol-1-yl}-1-methylcyclohexanol]", "IC50": "0.1 to 1"}
{"smiles": "Nc1ncc(-c2cnn(C3CCNCC3)c2)c2cc(-c3cccc4c3oc3ccccc34)oc12", "note": "[Example 36, 2-(dibenzo[b,d]furan-4-yl)-4-[1-(piperidin-4-yl)-1H-pyrazol-4-yl]furo[2,3-c]pyridine-7-amine]", "IC50": "0.1 to 1"}
{"smiles": "CC(=O)N1CCC(n2cc(-c3cnc(N)c4oc(-c5cccc(OC(F)(F)F)c5)cc34)cn2)CC1", "note": "[Example 163, 1-[4-(4-{7-amino-2-[3-(trifluoromethoxy)phenyl]furo[2,3-c]pyridin-4-yl}-1H-pyrazol-1-yl)piperidin-1-yl]ethanone]", "IC50": "1 to 10"}
{"smiles": "CCCOc1cccc(-c2cc3c(-c4cnn(C5CCN(C(C)=O)CC5)c4)cnc(N)c3o2)c1", "note": "[Example 181, 1-(4-{4-[7-amino-2-(3-propoxyphenyl)furo[2,3-c]pyridin-4-yl]-1H-pyrazol-1-yl}piperidin-1-yl)ethanone]", "IC50": "> 10"}
{"smiles": "COc1c(F)cccc1-c1cc2c(-c3cnn(C4CCNCC4)c3)cnc(N)c2o1", "note": "[Example 5, 2-(3-fluoro-2-methoxyphenyl)-4-[1-(piperidin-4-yl)-1H-pyrazol-4-yl]furo[2,3-c]pyridin-7-amine dihydrochloride]", "IC50": "1 to 10"}
